Test results as given in ChEMBL document CHEMBL1201862, “PubChem BioAssay data set” (2004).
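96-well plates; 48 h exposure; 5 concentrations. Endpoints by linear interpolation between flanking doses. Not reached: highest tested concentration assigned. The concentration for 50% growth inhibition is given as GI50.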 The source made the active and inactive calls. Rule as the data show it: active = GI50 up to about 1.1 µM and inactive = higher.

Tests used:
Experiment in all cases: NCI anticancer screen, dose series, 48 h
OVCAR-3 = tested on: OVCAR-3
IGROV-1 = tested on: IGROV-1
UACC-257 = tested on: UACC-257
SF-295 = tested on: SF-295
HCT-116 = tested on: HCT-116
SNB-19 = tested on: SNB-19
M19-MEL = tested on: M19-MEL
786-0 = tested on: 786-0
A549 = tested on: A549
SF-539 = tested on: SF-539
Malme-3M = tested on: Malme-3M
ACHN = tested on: ACHN
SW-620 = tested on: SW-620
NCI-H226 = tested on: NCI-H226
HL-60 = tested on: HL-60
MCF7 = tested on: MCF7
MDA-N = tested on: MDA-N
NCI/ADR-RES = tested on: NCI/ADR-RES
Hs-578T = tested on: Hs-578T
MDA-MB-435 = tested on: MDA-MB-435

SMILES | GI50 (OVCAR-3) | GI50 (IGROV-1) | GI50 (UACC-257) | GI50 (SF-295) | GI50 (HCT-116) | GI50 (SNB-19) | GI50 (M19-MEL) | GI50 (786-0) | GI50 (A549) | GI50 (SF-539) | GI50 (Malme-3M) | GI50 (ACHN) | GI50 (SW-620) | GI50 (NCI-H226) | GI50 (HL-60) | GI50 (MCF7) | GI50 (MDA-N) | GI50 (NCI/ADR-RES) | GI50 (Hs-578T) | GI50 (MDA-MB-435)
COc1cc2c3c(c1OC)C1(C=CC(=O)C=C1)C[C@H]3N(C)CC2 [PRONUCIFERINE] | > 100 µM (inactive) | > 100 µM (inactive) | > 100 µM (inactive) | > 100 µM (inactive) | > 100 µM (inactive) | > 100 µM (inactive) | > 100 µM (inactive) | > 100 µM (inactive) | > 100 µM (inactive) | > 100 µM (inactive) | > 100 µM (inactive) | > 100 µM (inactive) | > 100 µM (inactive) | > 100 µM (inactive) | – | – | – | – | – | –
O=C(CC(=O)C(=O)CC(=O)OCc1ccccc1)OCc1ccccc1 | – | 78.3 µM (inactive) | – | – | 44.6 µM (inactive) | 43.4 µM (inactive) | > 100 µM (inactive) | > 100 µM (inactive) | 60.8 µM (inactive) | 53.5 µM (inactive) | > 100 µM (inactive) | – | 88.9 µM (inactive) | – | 63.4 µM (inactive) | – | – | – | – | –
COC(=O)C1(C(C)C)CCc2c(OC)ccc(OC)c2C1=O (configuration not stated) | > 100 µM (inactive) | > 100 µM (inactive) | > 100 µM (inactive) | > 100 µM (inactive) | > 100 µM (inactive) | > 100 µM (inactive) | > 100 µM (inactive) | > 100 µM (inactive) | > 100 µM (inactive) | > 100 µM (inactive) | > 100 µM (inactive) | > 100 µM (inactive) | > 100 µM (inactive) | – | > 100 µM (inactive) | – | – | – | – | –
O=C1c2ccccc2C2(Br)C(=O)c3ccccc3C12 (configuration not stated) | > 100 µM (inactive) | > 100 µM (inactive) | > 100 µM (inactive) | > 100 µM (inactive) | – | – | > 100 µM (inactive) | > 100 µM (inactive) | > 100 µM (inactive) | > 100 µM (inactive) | > 100 µM (inactive) | > 100 µM (inactive) | > 100 µM (inactive) | – | > 100 µM (inactive) | – | – | – | – | –
O=C1OC2CCCC[C@@H]2C2C[C@]34CCCCC3[C@@H](C(=O)O4)C12 (some centres not stated) | > 100 µM (inactive) | – | > 100 µM (inactive) | > 100 µM (inactive) | > 100 µM (inactive) | > 100 µM (inactive) | > 100 µM (inactive) | > 100 µM (inactive) | > 100 µM (inactive) | > 100 µM (inactive) | > 100 µM (inactive) | > 100 µM (inactive) | > 100 µM (inactive) | > 100 µM (inactive) | – | – | – | – | – | –
COc1cc(C2c3cc4c(cc3OC(NNc3ccccc3)C2C)OCO4)cc(OC)c1OC (configuration not stated) | 0.993 µM (active) | 1.26 µM (inactive) | 2.07 µM (inactive) | 0.361 µM (active) | 1.03 µM (active) | 1.32 µM (inactive) | – | 1.1 µM (active) | 1.6 µM (inactive) | 0.571 µM (active) | 0.935 µM (active) | 0.631 µM (active) | 1.4 µM (inactive) | 1.92 µM (inactive) | 1.58 µM (inactive) | 0.714 µM (active) | 0.255 µM (active) | 0.597 µM (active) | 2.96 µM (inactive) | 0.305 µM (active)
CCCCCCCCCc1c(Cl)nc(Cl)nc1Cl | 17.9 µM (inactive) | 13.2 µM (inactive) | 19.8 µM (inactive) | 20.7 µM (inactive) | 14.5 µM (inactive) | 16.2 µM (inactive) | – | 13.9 µM (inactive) | 20.9 µM (inactive) | 18.2 µM (inactive) | 10.8 µM (inactive) | 19.5 µM (inactive) | 10.1 µM (inactive) | 5.62 µM (inactive) | 5.05 µM (inactive) | 18.4 µM (inactive) | 14.7 µM (inactive) | 18.8 µM (inactive) | 29.2 µM (inactive) | 13.5 µM (inactive)
Cc1cc(=O)oc2c(CNC(CO)C(=O)O)c(O)ccc12 (configuration not stated) | > 100 µM (inactive) | > 100 µM (inactive) | > 100 µM (inactive) | > 100 µM (inactive) | > 100 µM (inactive) | > 100 µM (inactive) | – | > 100 µM (inactive) | > 100 µM (inactive) | > 100 µM (inactive) | > 100 µM (inactive) | > 100 µM (inactive) | > 100 µM (inactive) | > 100 µM (inactive) | > 100 µM (inactive) | > 100 µM (inactive) | > 100 µM (inactive) | > 100 µM (inactive) | > 100 µM (inactive) | > 100 µM (inactive)
c1ccc(C2OCC(OC3CCCCO3)CO2)cc1 (configuration not stated) | > 100 µM (inactive) | > 100 µM (inactive) | > 100 µM (inactive) | > 100 µM (inactive) | > 100 µM (inactive) | > 100 µM (inactive) | – | > 100 µM (inactive) | > 100 µM (inactive) | > 100 µM (inactive) | > 100 µM (inactive) | > 100 µM (inactive) | > 100 µM (inactive) | > 100 µM (inactive) | > 100 µM (inactive) | > 100 µM (inactive) | > 100 µM (inactive) | > 100 µM (inactive) | 2.36 µM (inactive) | > 100 µM (inactive)
COc1ccc(C2c3cc4c(cc3OC3(OC)COC(=O)C23)OCO4)c(OC)c1 (configuration not stated) | 4.72 µM (inactive) | 10.5 µM (inactive) | 6.24 µM (inactive) | 12.8 µM (inactive) | 5.33 µM (inactive) | 14.2 µM (inactive) | – | 11.3 µM (inactive) | 10.1 µM (inactive) | 4.62 µM (inactive) | 8.63 µM (inactive) | 34.8 µM (inactive) | 6.43 µM (inactive) | 25.1 µM (inactive) | 2.32 µM (inactive) | 4.85 µM (inactive) | 1.77 µM (inactive) | 3.23 µM (inactive) | 3.78 µM (inactive) | 1.71 µM (inactive)
CC/C(N)=N\NC(=O)OC(C)(C)C | > 100 µM (inactive) | > 100 µM (inactive) | > 100 µM (inactive) | > 100 µM (inactive) | > 100 µM (inactive) | > 100 µM (inactive) | – | > 100 µM (inactive) | > 100 µM (inactive) | > 100 µM (inactive) | > 100 µM (inactive) | > 100 µM (inactive) | > 100 µM (inactive) | > 100 µM (inactive) | > 100 µM (inactive) | > 100 µM (inactive) | > 100 µM (inactive) | > 100 µM (inactive) | > 100 µM (inactive) | > 100 µM (inactive)
CCC/C=C/C=C/C(=O)OC1C(C)C2(O)C3C=C(C)C(=O)C3CC(COC(C)=O)=CC2C2C(C)(C)C12OC(=O)C(C)C (configuration not stated) | 17.1 µM (inactive) | 16.8 µM (inactive) | 16.7 µM (inactive) | 0.462 µM (active) | 13.8 µM (inactive) | 25.7 µM (inactive) | – | 9.62 µM (inactive) | 0.406 µM (active) | 11.7 µM (inactive) | 13.4 µM (inactive) | 9.46 µM (inactive) | 0.622 µM (active) | 15.8 µM (inactive) | 0.532 µM (active) | 17.2 µM (inactive) | 0.29 µM (active) | 21.5 µM (inactive) | 0.084 µM (active) | 0.303 µM (active)
COc1ccc2[nH]c3c(C)c4ccnc(NCCCN(C)CCCNc5ccc([N+](=O)[O-])c6[nH]c7ccccc7c(=O)c56)c4c(C)c3c2c1 | 0.607 µM (active) | 0.0291 µM (active) | 0.655 µM (active) | 0.104 µM (active) | 0.0145 µM (active) | 0.284 µM (active) | – | 0.0244 µM (active) | 0.0372 µM (active) | 0.106 µM (active) | 0.285 µM (active) | 0.0207 µM (active) | 0.00811 µM (active) | 0.421 µM (active) | 0.53 µM (active) | 0.0667 µM (active) | 0.372 µM (active) | 0.592 µM (active) | 0.604 µM (active) | 0.471 µM (active)
COc1ccc(-n2c(SC(CN3CCOCC3)CN3CCCC3=O)nc3ccccc3c2=O)cc1 (configuration not stated) | > 100 µM (inactive) | > 100 µM (inactive) | > 100 µM (inactive) | > 100 µM (inactive) | > 100 µM (inactive) | > 100 µM (inactive) | – | > 100 µM (inactive) | 87.7 µM (inactive) | 58.7 µM (inactive) | 91.2 µM (inactive) | 46 µM (inactive) | > 100 µM (inactive) | 40.8 µM (inactive) | 85.9 µM (inactive) | > 100 µM (inactive) | > 100 µM (inactive) | > 100 µM (inactive) | > 100 µM (inactive) | > 100 µM (inactive)
N=c1c2c(=S)n(-c3ccccc3)c(=S)n(-c3ccccc3)c2nc(SCCN2CCOCC2)n1-c1ccccc1 | 1.8 µM (inactive) | 1.76 µM (inactive) | 2.11 µM (inactive) | 7.19 µM (inactive) | 1.85 µM (inactive) | 10.4 µM (inactive) | – | 1.76 µM (inactive) | 1.78 µM (inactive) | 3.83 µM (inactive) | 1.66 µM (inactive) | 1.87 µM (inactive) | 1.91 µM (inactive) | 7.13 µM (inactive) | 1.41 µM (inactive) | 1.35 µM (inactive) | 2.26 µM (inactive) | 3.67 µM (inactive) | 2.67 µM (inactive) | 1.82 µM (inactive)
COc1cc(-c2c3c(cc4c2OCO4)[C@@H](Nc2ccc4c(c2)Cc2cc(N[C@@H]5c6cc7c(cc6C(c6cc(OC)c(O)c(OC)c6)[C@H]6C(=O)OC[C@H]56)OCO7)ccc2-4)[C@H]2COC(=O)[C@@H]2C3)cc(OC)c1O (some centres not stated) | 55.5 µM (inactive) | 1.56 µM (inactive) | 48.8 µM (inactive) | 20.3 µM (inactive) | 21.8 µM (inactive) | 36 µM (inactive) | – | 18.5 µM (inactive) | 47.2 µM (inactive) | 0.977 µM (active) | 14.8 µM (inactive) | 47.8 µM (inactive) | 49.8 µM (inactive) | 43.5 µM (inactive) | > 100 µM (inactive) | 27.9 µM (inactive) | 13.3 µM (inactive) | 15.2 µM (inactive) | > 100 µM (inactive) | 13.7 µM (inactive)
